Test results as given in patent US5223411A, “Nonionic surfactants having a carbamoyl group and process for treatment of a proteins containing medium using the same” (Centre National de la Recherche Scientifique (CNRS), priority 1990, dated 1993).
“And” between values parts separate entries of the source, which are not always exact repeats. Equal values may be shown once. Read-outs that look alike come from different tables or passages of the source.

Columns and labels:
[1] = biological target: T1, Bovine milk lactoperoxidase (Bos taurus, UniProt P80025); assay: Enzyme assay, lactoperoxidase (o-dianisidine substrate); assay type: biochemical
T1 construct: from tissue; host or cells: bovine milk
Experimental: Bovine milk lactoperoxidase was assayed according to George except that o-dianisidine was used as the substrate instead of gaiacol. One milliliter of 20 mM Na phosphate buffer (pH 7.4) contained […] (concentration range: 0.06 to 0.9 mM) 1 mM o-dianisidine, and 25×10^-3 μg (i.e., 1.15×10^-3 units) of lactoper oxidase. The absorbance at 435 nm was recorded as for β-lactamase.
(§1) The four enzyme activities were measured in the absence of surfactants and in the presence of 3 or 30 mM HECAMEG. Controls were also performed with 35 mM SDS. Km and V max were determined from Lineweaver-Burk plots, each point being the average of three estimations.

[2] = CMC, Coomassie blue G method of Rosenthal and Koussaie; assay type: physicochemical
Experimental: (§2) The CMC of HECAMEG was colorimetrically determined with the iodine method of Ross and Olivier and the Coomassie blue G method of Rosenthal and Koussaie and spectrofluorometrically with the technique of Vendittis et al. In the latter case, excitation was performed at 370 nm and emission recorded at 490 nm.
(§3) The CMC of the detergent was estimated by three distinct spectrophotometric methods of OG (n-octylα-D glucopyranoside) was used for comparison. The iodine spectrophotometric assay indicated a CMC of 17 mM while values of 14.5 and 15 mM were obtained with Coomassie blue G, and 19.5 mM was obtained by spectrofluorometry at 4° and 20° C. The second method was not reliable with OG, while the two other methods indicated for this surfactant, as expected, a CMC of 25 mM.

[3] = Solubility in water, usual buffers and organic solvents; assay type: physicochemical
[4] = biological target: T2, bacteriorhodopsin (Halobacterium salinarum, UniProt P02945); assay: Absorbance spectrum of bacteriorhodopsin; design: species or system H. halobium; settings: native 558 nm
T2 construct: The untrated (native) purple membrane of H. halobium; endogenous in cells; host or cells: Halobacterium halobium R1, purified purple membrane
T2 sequence (P02945 14-262): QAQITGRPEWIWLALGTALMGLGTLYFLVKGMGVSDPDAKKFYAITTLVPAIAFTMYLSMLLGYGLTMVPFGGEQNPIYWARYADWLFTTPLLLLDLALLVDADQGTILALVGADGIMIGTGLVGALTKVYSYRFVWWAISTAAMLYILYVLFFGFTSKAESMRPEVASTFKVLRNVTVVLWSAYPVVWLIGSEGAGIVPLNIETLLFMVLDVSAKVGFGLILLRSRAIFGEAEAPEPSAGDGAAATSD
Experimental: Absorbance of dark-adapted bacteriorhodopsin was recorded between 350 and 700 nm. […] When the membrane was solubilized with 1% SDS, leading to the extensive denaturation of bacteriorhodopsin, the absorbance at 558 nm was lost to the benefit of a new maximum at 390 nm, corresponding to free retinal dissolved in SDS. These two spectra were thus representative, respectively, of the native and denatured forms of bacteriorhodopsin. Upon extraction with HECAMEG, the absorption spectrum of the protein was similar to that of the native state protein with, however, a slight blue shift in the absorption maximum (λmax=550 nm). Some absorption was also recorded at 390 nm, but it was much lower than that in SDS, even when HECAMEG was used at concentrations up to 0.1 M. Because of the scatering of light by membrane particles, the 390-nm peak could not be observed in untreated samples.

[5] = CMC, spectrofluorometry (technique of Vendittis et al.); assay type: physicochemical; settings: for CMC: spectrofluorometry at 4° and 20° C.
Experimental: as §2, §3

[6] = CMC, iodine method of Ross and Olivier; assay type: physicochemical; settings: iodine spectrophotometric assay
Experimental: as §2, §3

[7] = Detergent dialysis (Lipoprep apparatus); assay type: physicochemical; settings: 30 mM in 50 mM Na phosphate pH 7.4, 5 kDa cutoff membranes, 25° C.
Experimental: Dialysis experiments with HECAMEG were performed with the Lipoprep apparatus using a three-compartment Teflon cell with two cellulose dialysis membranes (molecular mass cutoff 5 kDa). The central compartment was filled with 8 ml of 30 mM HECAMEG in 50 mM Na phosphate buffer, pH 7.4. The same buffer, but without detergent circulated through the two side compartment for 24 h at 25° C. Dialysis speed was estimated by measuring HECAMEG concentration within the central cell.
The dialyzability of HECAMEG was estimated by the use of the Lipoprep dialysis system under conditions corresponding to those used for the preparation of liposomes. […] Indeed, the concentration of HECAMEG in the central compartment of the cell dropped by 50% upon 3 h of dialysis and the surfactant was no longer detected after about 18 h.

[8] = biological target: T3, spiralin (Spiroplasma melliferum, UniProt P21625); settings: crossed immunoelectrophoresis, rabbit antibodies against S. melliferum membrane
T3 construct: Spiroplasma melliferum B88 was cultivated and membranes were purified as described; endogenous in cells; host or cells: Spiroplasma melliferum B88, purified membranes
T3 sequence (P21625 24-242): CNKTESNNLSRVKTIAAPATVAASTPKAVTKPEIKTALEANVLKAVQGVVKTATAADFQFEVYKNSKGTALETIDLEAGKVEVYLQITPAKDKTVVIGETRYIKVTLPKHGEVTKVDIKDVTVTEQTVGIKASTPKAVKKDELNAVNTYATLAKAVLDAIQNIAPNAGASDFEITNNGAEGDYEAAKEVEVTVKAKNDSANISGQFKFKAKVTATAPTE
Experimental: Antibodies directed against the S. melliferum membrane were prepared in rabbits as described. The hyperimmune sera were filtered through 0.45-μm-pore membranes and stored at -25° C. Crossed immunoelectrophoresis was performed according to the method of Laurell in 1% agarose gel in veronal buffer, pH 8.6 (I=0.03). After unprecipitaded proteins where eluted and gels were dried, immunoprecipitates were stained with Coomassie blue R-250.

[9] = Stability of HECAMEG solutions; assay type: physicochemical; settings: 4° C.
[10] = system: Escherichia coli β-lactamase; assay: Enzyme assay, β-lactamase (Nitrocefin substrate); assay type: biochemical; settings: for Km: read-out: Km ± SD
Experimental: (§4) P. multocida succinate dehydrogenase was assayed as described by Osborn et al in […] Na phosphate buffer (pH 7.4) containing 10 mM KCN, Na succinate (concentration range: 0.25 to 25 mM), 30 ug of thiazolyl blue, and 10 μg of phenazine methosulfate per milliliter. The samples contained 25, 50, or 100 μg of plasma membrane protein per milliliter and the absorbance at 550 nm was recorded for 10 min at 25° C.P. multocida NADH oxidase was assayed in 50 mM Tris-HCl buffer (pH 8.0) containing 0.2 mM dithiothreitol and 0.12 mM NADH. The samples contained 50,75, or 100 μg of plasma membrane protein per milliliter and the absorbance at 340 nm was recorded as above. The activity of the soluble form of Escherichia coli β-lactamase was measured by using Nitrocefin as substrate and by monitoring the rate of increase in the absorbance at 488 nm for 3 min at 25° C. One milliliter of 20 mM Na phosphate buffer (pH 7.4) contained Nitrocefin (concentration range: 5 to 20 uM) and 0.76 ug (i.e., 2×10^-3 units) of β-lactamase.
as §1

[11] = biological target: T4, bacteriorhodopsin from the purple membrane of H. halobium (Halobacterium salinarum, UniProt P02945); assay: Membrane protein extraction with detergents, purple membrane
T4 construct: The untrated (native) purple membrane of H. halobium; endogenous in cells; host or cells: Halobacterium halobium R1, purified purple membrane
T4 sequence (P02945 14-262): T2 sequence (P02945 14-262)
Text: Spiroplasma melliferum B88 was cultivated and membranes were purified as described. The purple membrane of Halobium R1 was purified according to Oesterhelt and Stoeckenius (22). Pasteurella multocida was cultivated in liquid medium containing per liter 20 g of Tryptose (Difco), 1 g of glucose, 5 g of NaCl, and 2,5 g of yeast extract (Difco), pH 7.4. The cells were harvested by centrifugation and disrupted with a French press. Plasma membranes were isolated according the technique of Osborn and Munson.
In order to extract membrane proteins, 200 μl of a membrane suspension in 0.1 M Na phosphate buffer (pH 7.4) was mixed with 200 μl of detergent dissolved in water. After 90 min at room temperature, the mixture was centrifuged at 260,000 g for 15 min at 20° C. (Beckman TL-100 ultracentrifuge, TL A 100.1 rotor). The supernatant was recovered for further analysis, while the pellet was dispersed in 400 μl of 2% SDS in 50 mM Tris-HCl buffer (pH 8.0). After 60 min at room temperature, the mixture was centrifuged as above and the supernatant recovered for analysis.
It was possible to extract up to 75% of bacteriorhodopsin from the purple membrane and 40% of protein from the spiroplasmal membrane with 75 mM HECAMEG. This corresponds respectively to ratios of 9 and 26 ug of protein/μmol of detergent. The efficacy of the extraction was not improved by increasing the detergent concentration. […]

[12] = biological target: T5, spiralin, the main protein of the S. melliferum membrane (Spiroplasma melliferum, UniProt P21625)
T5 construct: Spiroplasma melliferum B88 was cultivated and membranes were purified as described; endogenous in cells; host or cells: Spiroplasma melliferum B88, purified membranes
T5 sequence (P21625 24-242): as above
Experimental: Since the membrane of melliferum has a complex protein composition, the protein extracted by HECAMEG was analyzed by SDS PAGE. Separation of polypeptides was performed in 100×100×4 mm gels in 40 mM Tris-20 mM Na acetate buffer (pH 7.4) containing 2 mM EDTA and 0.1% SDS. The upper gel contained 4.83% acrylamide and 0.17% bisacrylamide while the lower separating gel contained 7.72% acrylamide and 0.28% bisacrylamide. The samples contained 2% SDS and 0.12 M 2 mercaptoethanol and were heated at 60° C. for 5 min prior to electrophoresis. Bromphenol blue was used as the tracking dye. Protein bands were stained with Coomassie blue R-250 in an acetic acid/methanol/water mixture (1/4/5,v/v). […] Optimal selectivity was obtained with surfactant concentration in the 60 to 65 mM range.

[13] = system: P. multocida NADH oxidase; assay: Enzyme assay, NADH oxidase; assay type: biochemical, Pasteurella multocida; settings: for Km: read-out: Km ± SD
Experimental: as §4, §1

[14] = system: P. multocida succinate dehydrogenase; assay: Enzyme assay, succinate dehydrogenase; assay type: biochemical, Pasteurella multocida; settings: for Km: read-out: Km ± SD
Experimental: as §4, §1

[15] = stated for comparison; cited from earlier work

CCCCCCCNC(=O)OC[C@H]1O[C@H](OC)[C@H](O)[C@@H](O)[C@@H]1O [HECAMEG, 6-0 (N-Heptylcarbamoyl) methyl α-D-glucopyranoside]
change of Vmax ([1]; 30 mM surfactant): increased about threefold
Vmax ± SD ([1]; HECAMEG 0.1%, 3 mM): (609 ± 30) × 10^-3 μmol/min
Vmax ± SD ([1]; HECAMEG 1%, 30 mM): (1238 ± 4) × 10^-3 μmol/min
enzyme activity above the CMC ([1]; above the CMC): increased
effect on enzyme below the CMC ([1]; below the CMC): apparent activation
CMC [2]: 14.5 mM and 15 mM
solubility in water ([3]; even at 0° C.): high solubility
solubility ([3]; usual buffers, in currant buffers, at 4° C., read-out: solubility): > 60 mg/mL
solubility ([3]; water, Tris-HCl and phosphate buffers, even at 0° C., read-out: solubility in water and usual buffers): ≥ 200000 µM
solubility in water and organic solvents ([3]; water, alcohols, methylene chloride, tetrahydrofuranne, DMSO): very soluble
absorption maximum (λmax) of bacteriorhodopsin ([4]; upon extraction with HECAMEG): 550 nm
CMC [5]: 19.5 mM
critical micellar concentration (CMC) ([5]; summary value, method not named at the place): 19.5 mM and 6.5 g/l
CMC [6]: 17 mM
dialysis time after which surfactant was no longer detected [7]: about 18 h
drop of concentration in the central compartment ([7]; upon 3 h of dialysis): 50%
antigenicity of spiralin after solubilization [8]: remained highly antigenic
stability of solutions [9]: stable for several weeks
change of Vmax ([10]; 30 mM surfactant): decreased threefold
Vmax ± SD ([10]; HECAMEG 0.1%, 3 mM): 143 ± 16.5 µmol/min
Km ([10]; HECAMEG 0.1%, 3 mM): 62 ± 10 µM
Vmax ± SD ([10]; HECAMEG 1%, 30 mM): 30.5 ± 0.4 µmol/min
Km ([10]; HECAMEG 1%, 30 mM): 18.1 ± 0.6 µM
enzyme activity above the CMC ([10]; above the CMC): decreased
effect on enzyme below the CMC ([10]; below the CMC): apparent activation
ratio protein extracted per detergent ([11]; 75 mM HECAMEG, purple membrane): 9 ug of protein/μmol of detergent
membrane protein extraction below the CMC ([11]; concentrations below the CMC): inefficient
polypeptides extracted (including spiralin) of 28 detected in the membrane ([12]; 60 to 65 mM surfactant): 12
solubilization of the fibril protein ([12]; S. melliferum membrane): not able to solubilize the fibril protein
inhibition of enzyme by the surfactant [13]: not inhibited
Vmax ± SD ([13]; HECAMEG 0.1%, 3 mM): 4.0 ± 0.5 µmol/min
Km ([13]; HECAMEG 0.1%, 3 mM): 12.5 ± 1.2 µM
Vmax ± SD ([13]; HECAMEG 1%, 30 mM): 10.3 ± 1.2 µmol/min and 10.3 µmol/min
Km ([13]; HECAMEG 1%, 30 mM): 3.3 ± 0.6 µM
change of affinity of the enzyme for its substrate ([13]; above the CMC (30 mM)): increased fourfold
effect on Km and Vmax below the CMC ([13]; below the CMC): neither Km nor Vmax was significantly modified
inhibition of enzyme by the surfactant [14]: not inhibited
Vmax ± SD ([14]; HECAMEG 0.1%, 3 mM): 163 ± 41 µmol/min
Km ([14]; HECAMEG 0.1%, 3 mM): 947 ± 52 µM
Vmax ± SD ([14]; HECAMEG 1%, 30 mM): 357 µmol/min and 357 ± 50 µmol/min
Km ([14]; HECAMEG 1%, 30 mM): 901 ± 65 µM
effect on Km and Vmax below the CMC ([14]; below the CMC): neither Km nor Vmax was significantly modified

CCCCCCCCO[C@H]1O[C@H](CO)[C@@H](O)[C@H](O)[C@H]1O [OG, n-octylα-D glucopyranoside, reference compound]
CMC [5]: 25 mM
CMC [6]: 25 mM
CMC of comparison surfactants [15]: 25 mM

CCCCCCCCCCCCOS(=O)(=O)[O-].[Na+] [SDS, sodium dodecyl sulfate, reference compound]
enzyme activity with SDS ([1]; 35 mM SDS): fully inhibited
absorption maximum of bacteriorhodopsin preparation ([4]; membrane solubilized with 1% SDS): 390 nm
enzyme activity with SDS ([10]; 35 mM SDS): fully inhibited
enzyme activity upon treatment with SDS ([13]; 35 mM SDS): completely inhibited
enzyme activity upon treatment with SDS ([14]; 35 mM SDS): completely inhibited
